Measured values: PMC7024217, “Study on Structure Activity Relationship of Natural Flavonoids against Thrombin by Molecular Docking Virtual Screening Combined with Activity Evaluation In Vitro” (Molecules, 2020)
Where two headings read alike, the source gives them in different places.

Target: T1, bovine thrombin (Bos taurus, UniProt P00735)
T1 construct: bovine thrombin and argatroban were purchased from Sigma-Aldrich; purchased Sigma-Aldrich (St. Louis, MO, USA)
Test: Thrombin inhibitory activity assay (chromogenic substrate S-2238);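 note: microplate absorbance read-out, thrombin preincubated with test compound 5 min at 37 °C in PBS pH 7.2-7.4, inhibition relative to blank without compound after subtracting compound-only background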
Assay type: biochemical
Conditions: for Group (inhibitor class) / inhibitor class: class by anti-thrombin IC50

[1] = Table 1, anti-thrombin, substrate S-2238 4 mg/mL, read-out: IC50
[2] = Table 2, anti-thrombin, read-out: IC50 ±SD
[3] = thrombin inhibition, substrate 4 mg/mL, read-out: IC50

Row | Compound | IC50 [1] [µM] | Group (inhibitor class) (Table 2) | inhibitor class | also measured
1 | O=C(OC1Cc2c(O)cc(O)cc2OC1c1ccc(O)c(O)c1)c1cc(O)c(O)c(O)c1 (single isomer, unassigned; (-)) [(-)-Epicatechin gallate] | > 500 | – | – | –
2 | Oc1cc(O)c2c(c1)OC(c1cc(O)c(O)c(O)c1)C(O)C2 (single isomer, unassigned; (-)) [(-)-epigallocatechin] | – | – | – | IC50 (IC50): > 500 µM
3 | O=c1cc(-c2ccc(O)cc2)oc2cc(O)cc(O)c12 [Apigenin] | – | Strong inhibitor | – | –
4 | O=c1c(OC2OC(CO)C(O)C(O)C2O)c(-c2ccc(O)cc2)oc2cc(O)cc(O)c12 (stereo not drawn) [Astragaline] | 217 ± 5 | – | weak thrombin inhibitors (classified as weak thrombin inhibitors since their IC50 values ranged from 200 μM to 500 μM) | –
5 | O=c1cc(-c2ccccc2)oc2cc(O)c(O)c(O)c12 [Baicalein] | 249 ± 31 | – | weak thrombin inhibitors (classified as weak thrombin inhibitors since their IC50 values ranged from 200 μM to 500 μM) | –
6 | O=C(O)[C@H]1O[C@@H](Oc2cc3oc(-c4ccccc4)cc(=O)c3c(O)c2O)[C@H](O)[C@@H](O)[C@@H]1O [Baicalin] | 88.6 ± 8.2 | Strong inhibitor | – | IC50 [2]: 88.6 ± 8.2 µM
7 | O=C1c2c(O)cc(O)cc2O[C@H](c2cc(O)c(O)c(O)c2)[C@H]1O [Dihydromyricetin] | > 500 | – | – | –
8 | O=C1c2c(O)cc(O)cc2O[C@H](c2ccc(O)c(O)c2)[C@H]1O [Dihydroquercetin] | > 500 | – | – | –
9 | COc1ccc(-c2cc(=O)c3c(O)cc(O)cc3o2)cc1O [Diosmetin] | – | Moderate inhibitor | moderate inhibitors (compounds with IC50 value ranging from 100 μM to 200 μM were considered as moderate inhibitors) | –
10 | Oc1cc(O)c2c(c1)O[C@H](c1ccc(O)c(O)c1)[C@H](O)C2 [Epicatechin] | > 500 | – | – | –
11 | O=c1c(O)c(-c2ccc(O)c(O)c2)oc2cc(O)ccc12 [Fisetin] | 175 ± 18 | Moderate inhibitor | moderate inhibitors (compounds with IC50 value ranging from 100 μM to 200 μM were considered as moderate inhibitors) | –
12 | O=c1c(O)c(-c2ccccc2)oc2cc(O)cc(O)c12 [Galangin] | 159 | Moderate inhibitor | moderate inhibitors (compounds with IC50 value ranging from 100 μM to 200 μM were considered as moderate inhibitors) | IC50 [2]: 159 µM
13 | COc1cc(O)c2c(=O)cc(-c3ccc(O)cc3)oc2c1 [Genkwanin] | 212 ± 30 | – | weak thrombin inhibitors (classified as weak thrombin inhibitors since their IC50 values ranged from 200 μM to 500 μM) | IC50 [3]: 211 µM
14 | O=c1c(O)c(-c2ccc(O)cc2)oc2c(O)c(O)cc(O)c12 [Herbacetin] | 133 ± 4 | Moderate inhibitor | moderate inhibitors (compounds with IC50 value ranging from 100 μM to 200 μM were considered as moderate inhibitors) | IC50 [2]: 133 ± 4 µM
15 | COc1ccc([C@@H]2CC(=O)c3c(O)cc(O)cc3O2)cc1O [Hesperetin] | > 500 | – | – | –
16 | COc1ccc([C@@H]2CC(=O)c3c(O)cc(O[C@@H]4O[C@H](CO[C@@H]5O[C@@H](C)[C@H](O)[C@@H](O)[C@H]5O)[C@@H](O)[C@H](O)[C@H]4O)cc3O2)cc1O [Hesperidin] | > 500 | – | – | –
17 | COc1c(O)cc2oc(-c3ccc(O)cc3)cc(=O)c2c1O [Hispidulin] | 126 ± 6 | Moderate inhibitor | moderate inhibitors (compounds with IC50 value ranging from 100 μM to 200 μM were considered as moderate inhibitors) | IC50 [2]: 126 ± 6 µM
18 | COc1cc(O)c2c(=O)cc(-c3ccc(O)c(O)c3)oc2c1 [Hydroxygenkwanin] | 99.7 ± 5.5 | Strong inhibitor | – | IC50 [2]: 99.7 ± 5.5 µM
19 | O=c1c(O[C@@H]2O[C@H](CO)[C@@H](O)[C@H](O)[C@H]2O)c(-c2ccc(O)c(O)c2)oc2cc(O)cc(O)c12 [Isoquercitrin] | > 500 | – | – | –

Row | Compound | IC50 [1] [µM] | Group (inhibitor class) (Table 2) | inhibitor class | also measured
20 | COc1cc(-c2oc3cc(O)cc(O)c3c(=O)c2OC2OC(CO)C(O)C(O)C2OC2OC(C)C(O)C(O)C2O)ccc1O (stereo not drawn) [Isorhamnetin-3-O-neohesperidoside] | > 500 | – | – | –
21 | COc1cc(-c2oc3cc(O)cc(O)c3c(=O)c2O)ccc1O [Isorhamnetin] | – | Strong inhibitor | – | –
22 | O=c1c(O)c(-c2ccc(O)cc2)oc2cc(O[C@@H]3O[C@H](CO)[C@@H](O)[C@H](O)[C@H]3O)cc(O)c12 [Kaempferol-7-O-β-D-glucopyranoside] | > 500 | – | – | –
23 | O=c1c(O)c(-c2ccc(O)cc2)oc2cc(O)cc(O)c12 [Kaempferol] | 107 ± 2 | Moderate inhibitor | moderate inhibitors (compounds with IC50 value ranging from 100 μM to 200 μM were considered as moderate inhibitors) | IC50 [2]: 107 ± 2 µM
24 | O=c1cc(-c2ccc(O)c(O)c2)oc2cc(O)cc(O)c12 [Luteolin] | 146 ± 10 | Moderate inhibitor | moderate inhibitors (compounds with IC50 value ranging from 100 μM to 200 μM were considered as moderate inhibitors) | –
25 | O=c1cc(-c2ccc(O)c(O)c2)oc2cc(O[C@@H]3O[C@H](CO)[C@@H](O)[C@H](O)[C@H]3O)cc(O)c12 [Luteoloside] | 155 ± 18 | Moderate inhibitor | moderate inhibitors (compounds with IC50 value ranging from 100 μM to 200 μM were considered as moderate inhibitors) | IC50 [2]: 155 ± 18 µM
26 | O=c1c(O)c(-c2ccc(O)cc2O)oc2cc(O)cc(O)c12 [Morin] | 237 ± 26 | – | weak thrombin inhibitors (classified as weak thrombin inhibitors since their IC50 values ranged from 200 μM to 500 μM) | –
27 | O=C1C[C@@H](c2ccc(O)cc2)Oc2cc(O)cc(O)c21 [Naringenin] | > 500 | – | – | –
28 | C[C@@H]1O[C@@H](O[C@H]2[C@H](Oc3cc(O)c4c(c3)O[C@H](c3ccc(O)cc3)CC4=O)O[C@H](CO)[C@@H](O)[C@@H]2O)[C@H](O)[C@H](O)[C@H]1O [Naringin] | 444 ± 59 | – | weak thrombin inhibitors (classified as weak thrombin inhibitors since their IC50 values ranged from 200 μM to 500 μM) | –
29 | C[C@@H]1O[C@@H](OC[C@H]2O[C@@H](Oc3cc(O)c4c(c3)O[C@H](c3ccc(O)cc3)CC4=O)[C@H](O)[C@@H](O)[C@@H]2O)[C@H](O)[C@H](O)[C@H]1O [Narirutin] | > 500 | – | – | –
30 | COc1ccc([C@@H]2CC(=O)c3c(O)cc(O[C@@H]4O[C@H](CO)[C@@H](O)[C@H](O)[C@H]4O[C@@H]4O[C@@H](C)[C@H](O)[C@@H](O)[C@H]4O)cc3O2)cc1O [Neohesperidin] | > 500 | – | – | –
31 | Oc1cc(O)c2c(c1)OC(c1ccc(O)c(O)c1)C(O)C2c1c(O)cc(O)c2c1OC(c1ccc(O)c(O)c1)C(O)C2 (stereo not drawn) [Proanthocyanidin B1] | > 500 | – | – | –
32 | O=c1c(O)c(-c2ccc(O)c(O)c2)oc2cc(O)cc(O)c12 [Quercetin] | – | – | weak thrombin inhibitors (classified as weak thrombin inhibitors since their IC50 values ranged from 200 μM to 500 μM) | –
33 | C[C@@H]1O[C@@H](Oc2c(-c3ccc(O)c(O)c3)oc3cc(O)cc(O)c3c2=O)[C@H](O)[C@H](O)[C@H]1O [Quercitrin] | > 500 | – | – | –
34 | C[C@@H]1O[C@@H](OC[C@H]2O[C@@H](Oc3c(-c4ccc(O)c(O)c4)oc4cc(O)cc(O)c4c3=O)[C@H](O)[C@@H](O)[C@@H]2O)[C@H](O)[C@H](O)[C@H]1O [Rutin] | 274 ± 23 | – | weak thrombin inhibitors (classified as weak thrombin inhibitors since their IC50 values ranged from 200 μM to 500 μM) | –
35 | O=c1cc(-c2ccc(O)cc2)oc2cc(O)c(O)c(O)c12 [Scutellarein] | 70.8 ± 2.7 | Strong inhibitor | – | IC50 [2]: 70.8 ± 2.7 µM; IC50 [3]: < 100 µM
36 | COc1cc(-c2oc3cc(O)cc(O)c3c(=O)c2O[C@@H]2O[C@H](CO[C@@H]3O[C@@H](C)[C@H](O)[C@@H](O)[C@H]3O)[C@@H](O)[C@H](O)[C@H]2O[C@@H]2O[C@@H](C)[C@H](O)[C@@H](O)[C@H]2O)ccc1O [Typhaneoside] | > 500 | – | – | –
37 | COc1c(O[C@@H]2O[C@H](C(=O)O)[C@@H](O)[C@H](O)[C@H]2O)cc(O)c2c(=O)cc(-c3ccccc3)oc12 [Wogonoside] | > 500 | – | – | –
38 | Myricitrin | – | Strong inhibitor | – | –
